Measured values from EP0912534B1, “MUSCARINIC ANTAGONISTS” (SCHERING CORPORATION, priority 1996, dated 1998).
pKi: −log10 of the molar value.

Experiments:
[1] = target: T1, cloned human m1 muscarinic receptor (Homo sapiens, UniProt P11229); assay: Muscarinic binding activity (3H-QNB displacement), m1; details: Ki m1, membranes of transfected CHO cells
T1 sequence (P11229 1-460): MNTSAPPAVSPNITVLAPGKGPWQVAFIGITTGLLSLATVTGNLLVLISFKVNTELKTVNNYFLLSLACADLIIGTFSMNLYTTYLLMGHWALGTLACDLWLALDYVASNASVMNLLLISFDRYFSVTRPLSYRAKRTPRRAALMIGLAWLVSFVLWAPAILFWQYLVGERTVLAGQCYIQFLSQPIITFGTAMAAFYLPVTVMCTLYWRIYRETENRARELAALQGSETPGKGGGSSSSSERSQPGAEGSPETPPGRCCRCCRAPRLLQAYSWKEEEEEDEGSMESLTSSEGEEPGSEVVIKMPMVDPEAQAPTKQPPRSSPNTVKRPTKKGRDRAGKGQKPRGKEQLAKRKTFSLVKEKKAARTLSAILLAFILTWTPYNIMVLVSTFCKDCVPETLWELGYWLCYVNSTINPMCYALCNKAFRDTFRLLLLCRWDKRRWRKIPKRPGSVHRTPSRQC

[2] = target: T2, cloned human m2 muscarinic receptor (Homo sapiens, UniProt P08172); assay: Muscarinic binding activity (3H-QNB displacement), m2; details: Ki m2, membranes of transfected CHO cells
T2 sequence (P08172 1-466): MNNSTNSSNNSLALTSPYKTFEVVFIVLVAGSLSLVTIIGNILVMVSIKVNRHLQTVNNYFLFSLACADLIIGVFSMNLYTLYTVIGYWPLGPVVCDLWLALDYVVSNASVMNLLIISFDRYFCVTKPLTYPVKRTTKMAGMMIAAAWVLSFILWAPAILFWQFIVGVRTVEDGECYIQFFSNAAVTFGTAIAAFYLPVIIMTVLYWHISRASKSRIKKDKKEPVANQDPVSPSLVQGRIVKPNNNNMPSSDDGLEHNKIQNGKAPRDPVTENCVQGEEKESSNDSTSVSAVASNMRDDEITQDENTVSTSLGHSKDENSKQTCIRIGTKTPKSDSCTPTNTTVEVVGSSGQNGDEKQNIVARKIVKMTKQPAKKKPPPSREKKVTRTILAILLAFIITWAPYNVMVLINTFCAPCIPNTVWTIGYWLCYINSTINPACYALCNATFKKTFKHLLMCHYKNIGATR

[3] = target: T3, cloned human m4 muscarinic receptor (Homo sapiens, UniProt P08173); assay: Muscarinic binding activity (3H-QNB displacement), m4; details: Ki m4, membranes of transfected CHO cells
T3 sequence (P08173 1-479): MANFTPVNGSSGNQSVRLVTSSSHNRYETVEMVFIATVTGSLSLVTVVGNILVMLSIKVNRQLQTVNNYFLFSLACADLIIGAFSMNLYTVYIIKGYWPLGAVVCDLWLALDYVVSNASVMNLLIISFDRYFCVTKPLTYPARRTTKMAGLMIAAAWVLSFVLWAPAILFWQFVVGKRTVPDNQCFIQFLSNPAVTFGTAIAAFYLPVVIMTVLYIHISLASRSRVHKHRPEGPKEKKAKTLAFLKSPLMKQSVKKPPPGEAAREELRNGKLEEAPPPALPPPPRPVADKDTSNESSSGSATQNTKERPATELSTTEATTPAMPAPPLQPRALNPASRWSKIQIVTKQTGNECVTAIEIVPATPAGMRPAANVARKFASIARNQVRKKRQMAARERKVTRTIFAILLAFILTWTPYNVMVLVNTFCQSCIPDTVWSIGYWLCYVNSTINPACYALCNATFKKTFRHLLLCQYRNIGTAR

[4] = test system: Release of Acetyl Choline (ACh) from Striatum; assay: Microdialysis: release of acetylcholine from striatum of conscious rats; assay type: in vivo, male Sprague-Dawley Rats; details: 10 mg/kg peritoneal, 3 rats, Isomer A
Procedure: The skull was exposed and drilled through to the dura at a point 0.2 mm anterior and 3.0 mm lateral to the bregma. At these coordinates, a guide cannula was positioned at the outer edge of the dura through the drilled opening, lowered perpendicularly to a depth of 2.5 mm, and permanently secured with dental cement to bone screws. Following the surgery, rats were given ampicillin (40 mg/kg, ip) and individually housed in modified cages. A recovery period of approximately 3 to 7 days was allowed before the microdialysis procedure was undertaken. • Microdialysis: All of the equipment and instrumentation used to conduct in vivo microdialysis was obtained from Bioanalytical Systems, Inc. (BAS). The microdialysis procedure required the insertion through the guide cannula of a thin, needle-like perfusable probe (CMA/12.3 mm x 0.5 mm) to a depth of 3 mm in striatum beyond the end of the guide. The probe was connected beforehand with tubing to a microinjection pump (CMA-/100). Rats were collared and tethered, and, following probe insertion, were placed in a large clear plexiglass bowl with litter material and access to food and water. The probe was perfused at 2 µl/min with Ringer's buffer (NaCl 147 mM; KCI 3.0 mM; CaCl2 1.2 mM; MgCl2 1.0 mM) containing 5.5 mM glucose, 0.2 mM L-ascorbate, and 1 µM neostigmine bromide at pH 7.4. To achieve stable baseline readings, microdialysis was allowed to proceed for 90 minutes prior to the collection of fractions. Fractions (20 µl) were obtained at 10-minute intervals over a 3-hour period using a refrigerated collector (CMA/170 or 200). Following the collection of four to five baseline fractions, the drug or combination of drugs to be tested was administered to the animal. Once collection was complete, each rat was autopsied to determine how accurately the probe was placed. • Acetylcholine (ACh) analysis: The concentration of ACh in collected samples of microdialysate was determined using HPLC/electrochemical detection. Samples were auto-injected (Waters 712 Refrigerated Sample Processor) onto a polymeric analytical HPLC column (BAS, MF-6150) and eluted with 50 mM Na2HPO4, pH 8.5. To prevent bacterial growth, Kathon CG reagent (0.005%) (BAS) was included in the mobile phase. Eluate from the analytical column, containing separated ACh and choline, was then immediately passed through an immobilized enzyme reactor cartridge (BAS, MF-6151) coupled to the column outlet. The reactor contained both acetylcholinesterase and choline oxidase covalently bound to a polymeric backbone. […] Data acquisition was carried out using an IBM Model 70 computer equipped with a microchannel IEEE board. Integration and quantification of peaks were accomplished using "Maxima" chromatography software (Waters Corporation). Total run time per sample was 11 minutes at a flow rate of 1 ml/min. Retention times for acetylcholine and choline were 6.5 and 7.8 minutes respectively. To monitor and correct for possible changes in detector sensitivity during chromatography, ACh standards were included at the beginning, middle and end of each sample queue.
Increases in ACh levels are consistent with presynaptic m2 receptor antagonism.

COc1ccc(S(=O)(=O)c2ccc3c(c2)CCC3N2CCN(C3CCCCC3)C[C@H]2C)cc1 (single isomer, unassigned) [Compound 14]
pKi [1]: 6.95 | pKi [2]: 8.21 | pKi [3]: 7.80 | Mean % of baseline ([4]; sample collection time 20 min (control, first baseline, before injection)): 99.47 % of baseline | Mean % of baseline ([4]; sample collection time 30 min (control, second baseline, before injection)): 100.85 % of baseline | Mean % of baseline ([4]; sample collection time 40 min (control, third baseline, before injection)): 99.71 % of baseline | Mean % of baseline ([4]; sample collection time 50 min (compounds injected at 50 minutes)): 99.20 % of baseline | Mean % of baseline ([4]; sample collection time 60 min, injected at 50 min): 100.78 % of baseline | Mean % of baseline ([4]; sample collection time 70 min, injected at 50 min): 86.66 % of baseline | Mean % of baseline ([4]; sample collection time 80 min, injected at 50 min): 95.26 % of baseline | Mean % of baseline ([4]; sample collection time 90 min, injected at 50 min): 95.90 % of baseline | Mean % of baseline ([4]; sample collection time 100 min, injected at 50 min): 102.30 % of baseline | Mean % of baseline ([4]; sample collection time 110 min, injected at 50 min): 108.24 % of baseline | Mean % of baseline ([4]; sample collection time 120 min, injected at 50 min): 85.62 % of baseline | Mean % of baseline ([4]; sample collection time 130 min, injected at 50 min): 103.94 % of baseline | Mean % of baseline ([4]; sample collection time 140 min, injected at 50 min): 99.35 % of baseline | Mean % of baseline ([4]; sample collection time 150 min, injected at 50 min): 91.47 % of baseline | Mean % of baseline ([4]; sample collection time 160 min, injected at 50 min): 90.80 % of baseline | Mean % of baseline ([4]; sample collection time 170 min, injected at 50 min): 89.0 % of baseline | Mean % of baseline ([4]; sample collection time 180 min, injected at 50 min): 83.13 % of baseline
